Test results taken from patent publication EP1200395B1, “UREA DERIVATIVES AS INHIBITORS OF CCR-3 RECEPTOR” (KIRIN BEER KABUSHIKI KAISHA, priority 1999, dated 2001).
Where a name gives a salt, the structure may show the parent alone.

The compounds below were run against T1, CCR-3 (Homo sapiens, UniProt P51677) (assay: Eotaxin-induced chemotaxis of CCR-3 transfectant cells (CCR3/U937)). Conditions: 10 µM test compound; eotaxin 1 x 10^-9 M; CCR3/U937 cells (Table 3c).
T1 sequence (P51677 1-355): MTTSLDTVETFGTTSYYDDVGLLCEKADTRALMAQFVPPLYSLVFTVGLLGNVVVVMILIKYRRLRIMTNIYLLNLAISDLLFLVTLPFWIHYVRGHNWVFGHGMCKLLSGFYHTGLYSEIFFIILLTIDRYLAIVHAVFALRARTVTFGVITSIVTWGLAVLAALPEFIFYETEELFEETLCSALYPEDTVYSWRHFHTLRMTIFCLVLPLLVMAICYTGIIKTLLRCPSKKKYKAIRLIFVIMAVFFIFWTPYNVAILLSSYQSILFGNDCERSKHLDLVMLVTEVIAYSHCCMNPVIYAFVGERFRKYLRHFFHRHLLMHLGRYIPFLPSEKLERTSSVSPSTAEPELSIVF
Assay type: cell-based
Design: expressed in transfected cells; host or cells: U937

Row | Compound | Chemotaxis Assay 10 µM (inhibition %)
1 | CC[N+](CCCNC(=O)Nc1ccccc1)(CCc1ccc(Cl)cc1)Cc1ccc(C)cc1.[I-] (centres unmarked) [Compound 297] | 100%
2 | C=CC[N+](CC)(CCCNC(=O)Nc1ccccc1)CCc1ccc(Cl)cc1.[I-] (centres unmarked) [Compound 301] | 100%
3 | CC[N+](CCCNC(=O)Nc1ccccc1)(CCc1ccc(Cl)cc1)Cc1ccc(C(=O)OC)cc1.[I-] (centres unmarked) [Compound 303] | 100%
4 | CC[N+](CC)(CCCNC(=O)Nc1ccccc1)Cc1ccccc1.[I-] [Compound 305] | 100%
5 | CC[N+](CC)(CCCNC(=O)Nc1ccccc1)CCc1ccccc1Cl.[I-] [Compound 308] | 100%
6 | CC[N+](CC)(CCCCCNC(=O)Nc1ccccc1)CCc1ccc(Cl)cc1.[I-] [Compound 323, [5-(Phenylureido)pentyl][2-(4-chlorophenyl)ethyl]diethylammanium iodide] | 100%

Continued, values first:

Row | Chemotaxis Assay 10 µM (inhibition %) | Compound
7 | 100% | CC[N+](CCCO)(CCCNC(=O)Nc1ccccc1)CCc1ccc(Cl)cc1.[I-] (centres unmarked) [Compound 299]
8 | 100% | CC[N+](CCCNC(=O)Nc1ccccc1)(CCc1ccc(Cl)cc1)CC(N)=O.[I-] (centres unmarked) [Compound 300]
9 | 66% | CC[N+](CC)(CCCNC(=O)Nc1ccccc1)CCc1ccc(OC)cc1.[I-] [Compound 304]
10 | 100% | CC[N+](CC)(CCCNC(=O)Nc1ccccc1)CCc1ccc(F)cc1.[I-] [Compound 306]
11 | 92% | CC[N+](CC)(CCCNC(=O)Nc1ccccc1)CCc1ccc(C)cc1.[I-] [Compound 307]

Same assay, conditions: U-937; 10 µM test compound; eotaxin 1 x 10^-9 M; CCR3/U937 cells (Table 3c)

Row | Compound | inhibition at 10 µM
12 | Cc1ccc(C[N+](CCCNC(=O)Nc2ccccc2)(CCc2ccc(Cl)cc2)Cc2ccc(C)cc2)cc1 [Compound 296, [3-(Phenylureido)propyl][2-(4-chlorophenyl)ethyl]bis(4-methylbenzyl)ammonium iodide] | 67%
13 | CC[N+](CCCNC(=O)Nc1ccccc1)(CCc1ccc(Cl)cc1)Cc1ccccc1 (centres unmarked) [Compound 302, [3-(Phenylureido)propyl][2-(4-chlorophenyl)ethyl](benzyl)ethylammonium iodide] | 100%
14 | CC[N+](CCCNC(=O)Nc1ccccc1)(CCc1ccc(Cl)cc1)Cc1ccc(C(=O)O)cc1 (centres unmarked) [Compound 322, [3-(Phenylureido)propyl][2-(4-chlorophenyl)ethyl][4-(carboxy)benzyl]ethylammonium iodide] | 93%
15 | CC[N+](CCCNC(=O)Nc1ccccc1)(CCc1ccc(Cl)cc1)Cc1ccccc1Cl (centres unmarked) [Compound 343, [3-(Phenylureido)propyl][2-(4-chlorophenyl)ethyl](2-chlorobenzyl)ethylammonium iodide] | 100%
16 | CC[N+](CCCNC(=O)Nc1ccccc1)(CCc1ccc(Cl)cc1)Cc1cc(F)ccc1F (centres unmarked) [Compound 351, [3-(Phenylureido)propyl][2-(4-chlorophenyl)ethyl](2,5-difluorobenzyl)ethylammonium iodide] | 100%

Other lines, results leading:

Row | inhibition at 10 µM | Compound
17 | 100% | CC[N+](CC)(CCCNC(=O)Nc1ccccc1)CCc1cccc(Cl)c1 [Compound 309, [3-(Phenylureido)propyl][2-(3-chlorophenyl)ethyl]diethylammonium iodide]
18 | 63% | CC[N+](CCCNC(=O)Nc1ccc(Br)cc1)(CCCC(=O)O)[C@@H](C)c1ccccc1 (stereo partly drawn) [Compound 315, [3-(4-Bromophenylureido)propyl][(1S)-1-phenylethyl][3-(carboxy)propyl]ethylammonium trifluoroacetate]
19 | 82% | CC[N+](CCCNC(=O)Nc1ccc(Br)cc1)(CCCC(=O)O)[C@H](C)c1ccccc1 (stereo partly drawn) [Compound 316, [3-(4-Bromophenylureido)propyl][(1R)-1-phenylethyl][3-(carboxy)propyl]ethylammonium trifluoroacetate]
20 | 100% | CC[N+](CCCCC(=O)OC)(CCCNC(=O)Nc1ccccc1)CCc1ccc(Cl)cc1 (centres unmarked) [Compound 320, [3-(Phenylureido)propyl][2-(4-chlorophenyl)ethyl][4-(methoxycarbonyl)butyl] ethylammonium iodide]
